Results published in patent publication US12590123B2, “Compounds and methods for treating cancer, viral infections, and allergic conditions” (Washington University, priority 2019, dated 2026).
Like-named read-outs stand apart in the source and are kept apart here. Starred links: 1 amine or outer side, 2 acyl side, 3 side chain; linkers in the order of their positions; H or OH if unused. Non-standard residues stand in square brackets, D forms with d. Residues, ends and D or L forms follow the SMILES beside them. X6 = N=C(N)NCCC[C@H](N[*:1])C(=O)c1nc2ccc(C(=O)[*:2])cc2s1

Columns and labels:
activated hepsin = target: T1, activated hepsin (Homo sapiens, UniProt P05981); experiment: Fluorescent kinetic enzyme assay of hepsin activity (Boc-QAR-AMC); type: biochemical
T1 construct: purchased R&D Systems 4776-SE-010

[1] = tested on: VSVpp (SARS-2-S) entry into TMPRSS2-positive Calu-3 cells
[2] = target: T2, recombinant HGFA serine protease domain (Homo sapiens, UniProt Q04756); experiment: Fluorescent kinetic enzyme assay of HGFA activity (Boc-QLR-AMC); type: biochemical; conditions: Table 2; read-out: HGFA (IC50 nM)
T2 construct: His6 tag (N); seven amino acid spacer plus TEV cleavage site (N); made in house; host or cells: High 5 insect cells (baculovirus; Sf9 for virus production)
T2 sequence (Q04756 373-655): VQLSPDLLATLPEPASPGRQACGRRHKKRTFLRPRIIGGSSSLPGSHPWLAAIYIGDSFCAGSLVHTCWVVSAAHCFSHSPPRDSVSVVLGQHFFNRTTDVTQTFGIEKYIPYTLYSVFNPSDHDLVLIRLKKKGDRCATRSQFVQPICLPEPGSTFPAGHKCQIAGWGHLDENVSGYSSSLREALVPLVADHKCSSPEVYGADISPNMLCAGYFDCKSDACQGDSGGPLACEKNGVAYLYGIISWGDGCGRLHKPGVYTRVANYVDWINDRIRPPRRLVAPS
Method in brief: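 His-tagged HGFA protease domain from baculovirus-infected High 5 cells, 6.25 nM in pH 8 Tris/NaCl/5 mM CaCl2/0.01% Triton X-100 with 2% DMSO. IC50 from four-parameter velocity fit (≥3 runs); apparent Ki by Cheng–Prusoff.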

matriptase = target: T3, matriptase (Homo sapiens, UniProt Q9Y5Y6); experiment: Fluorescent kinetic enzyme assay of matriptase activity (Boc-QAR-AMC); type: biochemical; conditions: Table 2; read-out: Matriptase (IC50 nM)
T3 construct: purchased R&D Systems 3946-SE-010
T3 sequence (Q9Y5Y6 615-855 limits assumed): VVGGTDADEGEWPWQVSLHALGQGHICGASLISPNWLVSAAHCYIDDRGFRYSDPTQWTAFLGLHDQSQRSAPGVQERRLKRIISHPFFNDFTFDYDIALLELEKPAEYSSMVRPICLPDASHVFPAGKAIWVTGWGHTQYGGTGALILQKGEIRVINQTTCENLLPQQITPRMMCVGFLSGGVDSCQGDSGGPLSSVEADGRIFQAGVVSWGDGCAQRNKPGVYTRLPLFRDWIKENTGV
Experimental: After thirty minutes of incubation at room temperature, Boc-QLR-AMC substrate was added (HGFA assay) or Boc-QAR-AMC substrate (matriptase, and hepsin assays). […] From a plot of the mean reaction velocity versus the inhibitor concentration, a non-linear four parameter curve fit was performed using GraphPad Prism (GraphPad Software, San Diego, CA) to determine inhibitor IC50s. The IC50 values were determined from the average of three or more separate experimental determinations. Apparent Ki values were calculated using the Cheng and Prusoff equation (Ki=IC50/(1+[S]/Km).
Inhibitors were pre-incubated with protease followed by the addition of the substrate. Inhibition of substrate proteolysis derived fluorescence was monitored kinetically over a period of one hour.

KLK5 = target: T4, KLK5 (Homo sapiens, UniProt Q9Y337); experiment: Fluorescent kinetic enzyme inhibitor assay of KLK5 (Boc-VPR-AMC); type: biochemical; conditions: Table 4; 7.5 nM KLK5, 100 μM substrate
T4 construct: purchased R&D Systems 1108-SE-010
T4 sequence (Q9Y337 23-293): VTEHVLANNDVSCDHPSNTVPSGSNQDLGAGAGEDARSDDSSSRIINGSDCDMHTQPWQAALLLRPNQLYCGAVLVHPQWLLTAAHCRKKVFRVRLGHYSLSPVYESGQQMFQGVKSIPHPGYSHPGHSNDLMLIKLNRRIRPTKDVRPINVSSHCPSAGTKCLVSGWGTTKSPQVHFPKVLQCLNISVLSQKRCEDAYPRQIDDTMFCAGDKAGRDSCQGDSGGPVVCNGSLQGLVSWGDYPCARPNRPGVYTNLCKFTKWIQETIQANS
Experimental: Fluorescent Kinetic Enzyme Inhibitor Assay of KLK5: Inhibitors (11-pt serial dilutions, 0-20 μM final concentration in reaction) were serially diluted in DMSO (2% DMSO final concentration) and then mixed with KLK5 (#1108-SE-010, R&D Systems, Minneapolis, Minnesota) in black 384 well plates (Corning #3575. Corning, NY). The final assay concentration for KLK5 is 7.5 nM in TNC buffer (25 mM Tris, 150 mM NaCl, 5 mM CaCl2), 0.01% Triton X-100, pH 8). After thirty minutes incubation at room temperature, Boc-VPR-AMC substrate was added. The final substrate concentrations for assay is 100 μM. Changes in fluorescence (excitation at 380 nm and emission at 460 nm) were measured at room temperature over time in a Biotek Synergy 2 plate reader (Winnoski, VT). Using GraphPad Prism version 6.04 software program, (GraphPad Software, San Diego, CA, graphpad.com), a four parameter curve fit was used to determine the inhibitor IC50s from a plot of the mean reaction velocity versus the inhibitor concentration. The IC50 values represent the average of three or more separate experimental determinations.

recombinant thrombin = recombinant thrombin (Homo sapiens, UniProt P00734); experiment: Chromogenic kinetic enzyme assay of thrombin (S2238); type: biochemical; conditions: Table 2; chromogenic assay; read-out: Thrombin* (IC50 nM)
Factor Xa = Factor Xa (Homo sapiens, UniProt P00742); experiment: Chromogenic kinetic enzyme assay of Factor Xa (S2222); type: biochemical; conditions: Table 2; chromogenic assay; read-out: Factor Xa* (IC50 nM)
[3] = Table 2, read-out: Hepsin (IC50 nM)

T1 sequence (P05981 163-417 limits assumed): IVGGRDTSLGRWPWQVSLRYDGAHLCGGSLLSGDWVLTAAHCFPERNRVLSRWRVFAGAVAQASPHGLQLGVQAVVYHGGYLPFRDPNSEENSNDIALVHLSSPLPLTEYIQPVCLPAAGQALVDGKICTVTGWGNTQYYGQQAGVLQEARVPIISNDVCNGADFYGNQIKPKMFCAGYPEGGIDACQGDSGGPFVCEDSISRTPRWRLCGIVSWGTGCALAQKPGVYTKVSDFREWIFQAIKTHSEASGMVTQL
T1 sequence (P05981 1-162 partner limits assumed): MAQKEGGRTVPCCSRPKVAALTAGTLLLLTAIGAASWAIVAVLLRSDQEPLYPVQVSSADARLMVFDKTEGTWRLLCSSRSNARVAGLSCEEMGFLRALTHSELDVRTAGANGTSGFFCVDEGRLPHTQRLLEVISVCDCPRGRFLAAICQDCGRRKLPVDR
Factor Xa, sequence (P00742 235-488 limits assumed): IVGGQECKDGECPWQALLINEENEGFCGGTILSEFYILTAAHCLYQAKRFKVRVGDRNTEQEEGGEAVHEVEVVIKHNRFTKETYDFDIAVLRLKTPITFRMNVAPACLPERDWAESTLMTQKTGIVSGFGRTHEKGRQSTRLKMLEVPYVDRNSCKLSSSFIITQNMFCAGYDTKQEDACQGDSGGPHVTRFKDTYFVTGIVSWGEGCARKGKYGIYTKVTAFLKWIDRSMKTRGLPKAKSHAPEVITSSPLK
Factor Xa, sequence (P00742 41-179 partner limits assumed): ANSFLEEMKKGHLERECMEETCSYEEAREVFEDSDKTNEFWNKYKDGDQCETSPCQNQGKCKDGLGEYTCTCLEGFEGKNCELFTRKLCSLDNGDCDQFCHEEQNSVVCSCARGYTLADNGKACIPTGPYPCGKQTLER

SMILES	EC50 [1] [nM]	IC50 [2] [nM]	IC50 (matriptase) [nM]	IC50 (activated hepsin; [3]) [nM]	IC50 (KLK5) [nM]	other results
CC(=O)N[C@@H](CO)C(=O)N[C@@H](CCCCN)C(=O)N[C@@H](CC(C)C)C(=O)N[C@@H](CCCNC(=N)N)C(=O)c1nc2ccc(C(=O)N[C@H](C(N)=O)C(C)C)cc2s1 [ZFH7116, Ac-SKLR kbt V-amide] (Ac-SKL[X6]V-NH2)	307					IC50 (activated hepsin; Table 6, read-out: Hepsin IC50): 0.5 nM
CC(=O)N[C@H]1Cc2ccc(cc2)OCCCC[C@@H](C(=O)N[C@@H](CCCNC(=N)N)C(=O)c2nc3ccccc3s2)NC(=O)[C@H](Cc2ccccc2)NC1=O [VD4111, (7S,10S,13S)-13-acetamido-N—((S)-1-(benzo[d]thiazol-2-yl)-5-guanidino-1-oxopentan-2-yl)-10-benzyl-9,12-dioxo-2-oxa-8,11-diaza-1(1,4)-benzenacyclotetradecaphane-7-carboxamide]		11.9	17	0.331	647	
CC(=O)N[C@@H](Cc1c[nH]c2ccccc12)C(=O)N[C@@H](Cc1ccccc1)C(=O)N[C@@H](CCCNC(=N)N)C(=O)c1nc2ccccc2s1 [AcWFRkbt, Ac-WFR-kbt]					> 20000	
CC(=O)N[C@H]1CC(=O)NCCCC[C@@H](C(=O)N[C@@H](CCCNC(=N)N)C(=O)c2nc3ccccc3s2)NC(=O)[C@H](CC(C)C)NC1=O [VD2173, (3S,6S,14S)-6-acetamido-N—((S)-1-(benzo[d]thiazol-2-yl)-5-guanidino-1-oxopentan-2-yl)-3-isobutyl-2,5,8-trioxo-1,4,9-triazacyclotetradecane-14-carboxamide]	104			8.4		IC50 (activated hepsin; Table 6, read-out: Hepsin IC50): 10 nM; IC50 (recombinant thrombin): 699 nM
CC(=O)N[C@@H](CC(C)C)C(=O)N[C@@H](CC(C)C)C(=O)N[C@H](C=O)CCCNC(=N)N [Leupeptin, reference compound]					> 20000	
CC(=O)N[C@H]1CC(=O)NCCCC[C@@H](C(=O)N[C@@H](CCCNC(=N)N)B(O)O)NC(=O)[C@H](CC(C)C)NC1=O [MM2030]					18100	
CC(=O)N[C@H]1Cc2ccc(cc2)OCCCC[C@@H](C(=O)N[C@@H](CCCNC(=N)N)C(=O)c2nc3ccccc3s2)NC(=O)[C@H](Cc2c[nH]c3ccccc23)NC1=O [VD4158]		85.2	56.8		3560	
CC(=O)N[C@H]1Cc2ccc(cc2)OCCCC[C@@H](C(=O)N[C@@H](CCCNC(=N)N)C(=O)c2nc3ccccc3s2)NC(=O)[C@H](CC(C)C)NC1=O [VD4072, (7S,10S,13S)-13-acetamido-N—((S)-1-(benzo[d]thiazol-2-yl)-5-guanidino-1-oxopentan-2-yl)-10-isobutyl-9,12-dioxo-2-oxa-8,11-diaza-1(1,4)-benzenacyclotetradecaphane-7-carboxamide]		7.99	7.76	0.175	5230	
CC(=O)N[C@H]1Cc2cn(nn2)CCCC[C@H](C(=O)N[C@@H](CCCNC(=N)N)C(=O)c2nc3ccccc3s2)NC(=O)[C@H](CC(C)C)NC1=O [VD4090, (3S,6S,9R,Z)-3-acetamido-N—((S)-1-(benzo[d]thiazol-2-yl)-5-guanidino-1-oxopentan-2-yl)-6-isobutyl-4,7-dioxo-11H-5,8-diaza-1(4,1)-triazolacyclotridecaphane-9-carboxamide]			39.1	14.1	9390	
CC(=O)N[C@@H](Cc1c[nH]c2ccccc12)C(=O)N[C@@H](CC(C)C)C(=O)N[C@@H](Cc1ccccc1)C(=O)N[C@@H](CCCNC(=N)N)C(=O)c1nc2ccccc2s1 [ZFH7064, Ac-WLFR-kbt]	150					Calu-3 EC50 (nM) [1]: excellent potency
CC(=O)N[C@H]1C/C=C\COc2ccc(cc2)C[C@@H](C(=O)N[C@@H](CCCNC(=N)N)C(=O)c2nc3ccccc3s2)NC(=O)[C@H](CC(C)C)NC1=O [VD4051, (7S,10S,13S,E)-7-acetamido-N—((S)-1-(benzo[d]thiazol-2-yl)-5-guanidino-1-oxopentan-2-yl)-10-isobutyl-8,11-dioxo-2-oxa-9,12-diaza-1(1,4)-benzenacyclotetradecaphan-4-ene-13-carboxamide]	565		80.2	102		IC50 (Factor Xa): 8810 nM
CSCC[C@@H]1NC(=O)[C@@H](NC(C)=O)CC(=O)NCCCC[C@@H](C(=O)N[C@@H](CCCNC(=N)N)C(=O)c2nc3ccccc3s2)NC1=O [VD3173, (3S,6S,14S)-6-acetamido-N—((S)-1-(benzo[d]thiazol-2-yl)-5-guanidino-1-oxopentan-2-yl)-3-(2-(methylthio)ethyl)-2,5,8-trioxo-1,4,9-triazacyclotetradecane-14-carboxamide]	119					IC50 (recombinant thrombin): > 20000 nM; Calu-3 EC50 (nM) [1]: almost equivalent activity
CC(=O)N[C@H]1Cc2ccc(cc2)OC/C=C\C[C@@H](C(=O)N[C@@H](CCCNC(=N)N)C(=O)c2nc3ccccc3s2)NC(=O)[C@H](CC(C)C)NC1=O [VD4010, (7S,10S,13S,Z)-13-acetamido-N—((S)-1-(benzo[d]thiazol-2-yl)-5-guanidino-1-oxopentan-2-yl)-10-isobutyl-9,12-dioxo-2-oxa-8,11-diaza-1(1,4)-benzenacyclotetradecaphan-4-ene-7-carboxamide]		11.1	3.24	0.141	1830	IC50 (Factor Xa): 122 nM
